Where “and” joins values, the source holds several entries; their conditions need not be identical. Identical values can stand only once. Like-named read-outs stand apart in the source and are kept apart here.
Assays:
[1] = tested on: S. mansoni newly transformed schistosomula (NTS); test: Schistosome phenotypic assay; assay type: cell-based, Schistosoma mansoni; settings: for Severity score Day 1 / Severity score Day 2 / Severity score Day 3 / Severity score Day 4: 10 μM inhibitor, scale 0 (no effect) to 4 (severe); for Severity score Day 1: 24 h; for Severity score Day 2: 48 h
Description: Newly transformed schistosomula (NTS) of S. mansoni were prepared by mechanically transforming infective larvae (cercariae) as described previously.[70],[71] NTS (200–300 parasites) were incubated in 200 μL of Basch Medium 169 containing 5% FBS, 100 U mL^–1 penicillin, and 100 μg mL^–1 streptomycin at 5% CO2 and 37 °C.[70],[72],[73] Inhibitors were added at the final concentration of 10 μM,[20],[69] and changes in phenotypes were observed every 24 h for up to 4 days. A constrained nomenclature of “descriptors” is used to record the multiple and dynamic changes in movement, shape, and translucence of which the schistosome parasite is capable (Table S3).[70] These descriptors are then converted into an ordinal “severity score” system from 0 (no effect) to 4 (maximum effect), which allows for the relative comparison of compound effects, as described.[74],[75] Images of NTS were captured using a Zeiss Axiovert 40 C inverted microscope (10× objective) and a Zeiss AxioCam MRc digital camera controlled by AxioVision 40 (v. 4.8.1.0) software.

[2] = molecular target: recombinant SmCB1 (Schistosoma mansoni, UniProt Q8MNY2, T185A/T300A); test: SmCB1 kinetic inhibition assay with fluorogenic substrate Cbz-Phe-Arg-AMC; assay type: biochemical; settings: for Ki / SmCB1 inhibition k2nd (second-order rate constant): substrate Cbz-Phe-Arg-AMC; for binding kinetics (shape of progress curves): Figure 2; for SmCB1 inhibition k2nd (second-order rate constant): slow-binding azadipeptide nitriles
Description: Inhibition measurements were performed in triplicates in 96-well microplates (100 μL assay volume) at 37 °C. SmCB1 (20–40 pM) was added to a mixture of the fluorogenic substrate Cbz-Phe-Arg-AMC (20 μM) and an inhibitor (0–100 μM) in 0.1 M sodium acetate, pH 5.5, containing 2.5 mM dithiothreitol and 0.1% PEG 6000. The substrate hydrolysis was monitored in an Infinite M1000 microplate reader (Tecan, Männedorf, Switzerland) at excitation and emission wavelengths of 360 and 465 nm, respectively, for up to 15 and 60 min for fast- and slow-binding inhibitors, respectively. […] For slow-binding inhibitors, an observed first-order rate constant kobs was calculated at each inhibitor concentration by fitting the progress curve to the equation P = vst + (vi – vs)(1 – […])/kobs + d, where P is the product formation, vs is the steady-state velocity, t is the reaction time, vi is the initial velocity, and d is the offset. The inhibition constant Ki′ was determined by nonlinear regression using the equation vs/v0 = 1/(1 + [I]/Ki′). The true inhibition constants Ki were then calculated using the equation Ki = Ki′/(1 + [S]/Km), where [S] is the substrate concentration and Km is the Michaelis constant. The apparent second-order rate constant k2nd′ was determined by fitting to the linear equation kobs = k2nd′[I] + koff, where koff is the first-order rate constants for the dissociation of the enzyme–inhibitor complex and the true constant k2nd was calculated by the correction k2nd = k2nd′(1 + [S]/Km). […] In none of the assay systems did the final concentration of DMSO exceed 1.5%.

[3] = SmCB1 inhibition Ki, Table S2, carbadipeptide nitriles
[4] = SmCB1 inhibition Ki, kinetic activity assay, pH 5.5, 37 °C
[5] = Table S2, carbadipeptide nitriles, read-out: SmCB1 inhibition Ki

Chain of recombinant SmCB1 (Q8MNY2 87-340 T185A/T300A): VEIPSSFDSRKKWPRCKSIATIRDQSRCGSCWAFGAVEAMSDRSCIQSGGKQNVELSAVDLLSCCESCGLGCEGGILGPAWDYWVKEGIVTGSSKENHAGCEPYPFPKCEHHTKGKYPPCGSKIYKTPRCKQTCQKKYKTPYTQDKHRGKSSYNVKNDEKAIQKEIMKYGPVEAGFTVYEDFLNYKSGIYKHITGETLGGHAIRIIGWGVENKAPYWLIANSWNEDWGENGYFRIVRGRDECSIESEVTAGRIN

Compound: CN(C#N)N(C)C(=O)CNC(=O)OCc1ccccc1 [Compound 1a]
- Severity score Day 1 [1]: 0 and 0/0
- Severity score Day 2 [1]: 0 and 0/0
- Severity score Day 3 [1]: 0
- Severity score Day 4 [1]: 0
- phenotype severity against NTS ([1]; 10 μM, up to 4 days): ineffective

Compound: N#CCNC(=O)CNC(=O)OCc1ccccc1 [Compound 1c]
- Severity score Day 1 [1]: 0
- Severity score Day 2 [1]: 0
- Severity score Day 3 [1]: 0
- Severity score Day 4 [1]: 0
- Ki [2, 3]: > 10 µM
- Ki [2, 4]: > 100 µM

Compound: CN(C#N)N(C)C(=O)[C@H](Cc1ccccc1)NC(=O)OCc1ccccc1 [Compound 2a]
- Descriptors Day 1 (phenotypic changes) ([1]; 10 µM inhibitor): Deg
- Descriptors Day 2 (phenotypic changes) ([1]; 10 µM inhibitor): Deg
- Severity score Day 1 [1]: 4 and 4/4
- Severity score Day 2 [1]: 4 and 4/4
- Severity score Day 3 [1]: 4
- Severity score Day 4 [1]: 4
- koff [2]: 0.0003 ± 2e-05 s⁻¹
- binding kinetics (shape of progress curves) [2]: slow-binding
- Ki [2, 4]: 0.0194 ± 0.0014 µM
- SmCB1 inhibition k2nd (second-order rate constant) [2]: 15.7 ± 1.1 10^3 M^-1 s^-1

Compound: N#CCNC(=O)[C@H](Cc1ccccc1)NC(=O)OCc1ccccc1 [Compound 2c]
- Severity score Day 1 [1]: 0
- Severity score Day 2 [1]: 0
- Severity score Day 3 [1]: 0
- Severity score Day 4 [1]: 0
- binding kinetics (shape of progress curves) [2]: fast-binding
- Ki [2, 3]: 2.92 ± 0.32 µM
- Ki [2, 4]: 2.92 ± 0.32 µM

Compound: CC(C)C[C@H](NC(=O)NCc1ccccc1)C(=O)NCC#N [Compound 3c, (S)-2-(3-Benzylureido)-N-(cyanomethyl)-4-methylpentanamide]
- Severity score Day 1 [1]: 0
- Severity score Day 2 [1]: 0
- Severity score Day 3 [1]: 0
- Severity score Day 4 [1]: 0
- Ki [2, 3]: > 10 µM
- Ki [2, 4]: > 100 µM

Compound: CC(C)C[C@H](NC(=O)Nc1ccc(-c2noc(-c3cccs3)n2)cc1)C(=O)N(C)N(C)C#N [Compound 4a]
- Descriptors Day 1 (phenotypic changes) ([1]; 10 µM inhibitor): R, Unc, Dark
- Descriptors Day 2 (phenotypic changes) ([1]; 10 µM inhibitor): Deg
- Severity score Day 1 [1]: 3
- Severity score Day 2 [1]: 4
- Severity score Day 3 [1]: 4
- Severity score Day 4 [1]: 4
- Ki [2, 4]: 0.0367 ± 0.0026 µM
- SmCB1 inhibition k2nd (second-order rate constant) [2]: 13.9 ± 2.9 10^3 M^-1 s^-1

Compound: CC(C)C[C@H](NC(=O)Nc1ccc(-c2noc(-c3cccs3)n2)cc1)C(=O)NCC#N [Compound 4c]
- Descriptors Day 1 (phenotypic changes) ([1]; 10 µM inhibitor): R, S
- Descriptors Day 2 (phenotypic changes) ([1]; 10 µM inhibitor): R
- Descriptors Day 4 (phenotypic changes) ([1]; 10 µM inhibitor): R, S
- Severity score Day 1 [1]: 2
- Severity score Day 2 [1]: 1
- Severity score Day 3 [1]: 0
- Severity score Day 4 [1]: 2
- Ki [2, 3]: 6.62 ± 0.91 µM
- Ki [2, 4]: 6.62 ± 0.91 µM

Compound: CC(C)C[C@H](NC(=O)c1ccc(-c2noc(-c3cccs3)n2)cc1)C(=O)NCC#N [Compound 5c]
- Descriptors Day 2 (phenotypic changes) ([1]; 10 µM inhibitor): R
- Descriptors Day 3 (phenotypic changes) ([1]; 10 µM inhibitor): R, Dark
- Descriptors Day 4 (phenotypic changes) ([1]; 10 µM inhibitor): Deg
- Severity score Day 1 [1]: 0
- Severity score Day 2 [1]: 1
- Severity score Day 3 [1]: 2
- Severity score Day 4 [1]: 4
- Ki [2, 3]: 1.22 ± 0.2 µM
- Ki [2, 4]: 1.21 ± 0.205 µM

Compound: CC(C)C[C@@H](C(=O)N(C)N(C)C#N)N(C)C(=O)c1ccc(-c2noc(-c3cccs3)n2)cc1 [Compound 6a]
- Descriptors Day 1 (phenotypic changes) ([1]; 10 µM inhibitor): Deg
- Descriptors Day 2 (phenotypic changes) ([1]; 10 µM inhibitor): Deg
- Severity score Day 1 [1]: 4 and 4/4
- Severity score Day 2 [1]: 4 and 4/4
- Severity score Day 3 [1]: 4
- Severity score Day 4 [1]: 4
- Ki [2, 4]: 1.54 ± 0.25 µM
- decrease in potency versus 5a ([2]; ratio of SmCB1 Ki values): 300 fold
- SmCB1 inhibition k2nd (second-order rate constant) [2]: 0.5 ±0.1 10^3 M^-1 s^-1

Compound: CC(C)C[C@@H](C(=O)NCC#N)N(C)C(=O)c1ccc(-c2noc(-c3cccs3)n2)cc1 [Compound 6c]
- Descriptors Day 4 (phenotypic changes) ([1]; 10 µM inhibitor): R
- Severity score Day 1 [1]: 0
- Severity score Day 3 [1]: 0
- Ki [2, 3]: > 10 µM
- Ki [2, 4]: > 100 µM

Compound: CN(C#N)N(C)C(=O)C1(NC(=O)c2ccc(-c3noc(-c4cccs4)n3)cc2)CCCCC1 [Compound 7a]
- Descriptors Day 1 (phenotypic changes) ([1]; 10 µM inhibitor): R, Unc, Dark
- Descriptors Day 2 (phenotypic changes) ([1]; 10 µM inhibitor): Deg
- Severity score Day 1 [1]: 3
- Severity score Day 2 [1]: 4
- Severity score Day 3 [1]: 4
- Severity score Day 4 [1]: 4
- Ki [2, 4]: 0.229 ± 0.007 µM

Compound: N#CCNC(=O)C1(NC(=O)c2ccc(-c3noc(-c4cccs4)n3)cc2)CCCCC1 [Compound 7c]
- Severity score Day 1 [1]: 0
- Severity score Day 2 [1]: 0
- Severity score Day 3 [1]: 0
- Severity score Day 4 [1]: 0
- Ki [2, 3]: > 10 µM
- Ki [2, 4]: > 100 µM

Compound: C[C@@H](C#N)NC(=O)[C@H](Cc1ccccc1)NC(=O)OCc1ccccc1 [Compound 8c]
- Severity score Day 1 [1]: 0
- Severity score Day 2 [1]: 0
- Severity score Day 3 [1]: 0
- Severity score Day 4 [1]: 0
- Ki [2, 3]: > 10 µM

Compound: CC(C)(C)OC(=O)NCC(=O)NCC#N [Gü807]
- Ki [2, 5]: > 10 µM

Compound: CC(C)(C)OC(=O)N[C@@H](Cc1ccccc1)C(=O)NCC#N [Gü809]
- Ki [2, 5]: > 10 µM

Compound: CC(C)C[C@H](NC(=O)OC(C)(C)C)C(=O)NCC#N [Gü914]
- Ki [2, 5]: > 10 µM

Compound: CC(C)(C)OC(=O)N[C@@H](Cc1ccc(O)cc1)C(=O)NCC#N [Gü915]
- Ki [2, 5]: > 10 µM

Compound: CC(C)(C)OC(=O)N[C@@H](Cc1c[nH]c2ccccc12)C(=O)NCC#N [Gü916]
- Ki [2, 5]: > 10 µM

Compound: CC(C)C[C@H](NC(=O)OCc1ccccc1)C(=O)NCC#N [Gü928]
- Ki [2, 5]: > 10 µM

Compound: CC(C)(C)OC(=O)N[C@@H](CC1CCCCC1)C(=O)NCC#N [Gü929]
- Ki [2, 5]: > 10 µM

Compound: CC(C)(C)OC(=O)N[C@@H](COCc1ccccc1)C(=O)NCC#N [Gü930]
- Ki [2, 5]: > 10 µM

Compound: CC(C)[C@H](NC(=O)OC(C)(C)C)C(=O)NCC#N [Gü931]
- Ki [2, 5]: > 10 µM

Compound: CCC(C)C(NC(=O)OC(C)(C)C)C(=O)NCC#N (stereo not shown) [Gü932]
- Ki [2, 5]: > 10 µM

Compound: C[C@H](NC(=O)OC(C)(C)C)C(=O)NCC#N [Gü933]
- Ki [2, 5]: > 10 µM

Compound: CSCC[C@H](NC(=O)OC(C)(C)C)C(=O)NCC#N [Gü935]
- Ki [2, 5]: > 10 µM

Compound: CC(C)(C)OC(=O)N1CCC[C@H]1C(=O)NCC#N [Gü936]
- Ki [2, 5]: > 10 µM

Compound: CSCC[C@@H](C#N)NC(=O)[C@H](Cc1ccccc1)NC(=O)OC(C)(C)C [Gü968]
- Ki [2, 5]: > 10 µM

Compound: CC(C)(C)OC(=O)N[C@@H](Cc1ccccc1)C(=O)N[C@H](C#N)CC#N [Gü970]
- Ki [2, 5]: > 10 µM

Compound: CC(C)(C)OC(=O)N[C@@H](Cc1ccc(Br)cc1)C(=O)NCC#N [Gü1121]
- Ki [2, 5]: > 10 µM

Compound: CC(C)(C)OC(=O)N[C@@H](Cc1cccc(Br)c1)C(=O)NCC#N [Gü1122]
- Ki [2, 5]: > 10 µM

Compound: CC(C)(C)OC(=O)N[C@@H](Cc1cccc2ccccc12)C(=O)NCC#N [Gü1127]
- Ki [2, 5]: > 10 µM

Compound: CC(C)(C)OC(=O)N[C@@H](CCc1ccccc1)C(=O)NCC#N [Gü1129]
- Ki [2, 5]: > 10 µM

Compound: CC(C)(C)OC(=O)N[C@H](C(=O)NCC#N)c1ccccc1 [Gü1130]
- Ki [2, 5]: > 10 µM

Compound: CCC[C@H](NC(=O)OC(C)(C)C)C(=O)NCC#N [Gü1131]
- Ki [2, 5]: > 10 µM

Compound: CC[C@H](NC(=O)OC(C)(C)C)C(=O)NCC#N [Gü1132]
- Ki [2, 5]: > 10 µM

Compound: CC(C)(C)OC(=O)N[C@H](Cc1ccccc1)C(=O)NCC#N [Gü1133]
- Ki [2, 5]: > 10 µM

Compound: CC(=O)N[C@@H](Cc1ccccc1)C(=O)NCC#N [Gü1134]
- Ki [2, 5]: > 10 µM

Compound: N#CCNC(=O)[C@H](Cc1ccccc1)NC(=O)c1ccccc1 [Gü1135]
- Ki [2, 5]: > 10 µM

Compound: CC(C)(C)OC(=O)N[C@@H](CC1CC1)C(=O)NCC#N [Gü1228]
- Ki [2, 5]: > 10 µM

Compound: CC(C)(C)OC(=O)N[C@@H](Cc1ccsc1)C(=O)NCC#N [Gü1232]
- Ki [2, 5]: > 10 µM

Compound: CC(C)(C)OC(=O)N[C@@H](Cc1ccc(F)cc1)C(=O)NCC#N [Gü1237]
- Ki [2, 5]: > 10 µM

Compound: CC(C)(C)OC(=O)N[C@@H](Cc1cccc(F)c1)C(=O)NCC#N [Gü1239]
- Ki [2, 5]: > 10 µM

Compound: CC(C)(C)OC(=O)N[C@@H](Cc1ccccc1F)C(=O)NCC#N [Gü1242]
- Ki [2, 5]: > 10 µM

Compound: CC(C)(C)OC(=O)N[C@@H](Cc1csc2ccccc12)C(=O)NCC#N [Gü1246]
- Ki [2, 5]: > 10 µM

Compound: N#CCNC(=O)C1(NC(=O)OCc2ccccc2)CCCCC1 [Gü2195]
- Ki [2, 5]: > 10 µM
